Results from PMC6123382, “Phosphorylation of the Amyloid-Beta Peptide Inhibits Zinc-Dependent Aggregation, Prevents Na,K-ATPase Inhibition, and Reduces Cerebral Plaque Deposition” (Frontiers in Molecular Neuroscience, 2018).
pKd: −log10 of the molar value. Each block holds one substance with its values, some of them ahead of it. Where no end group is shown, it is not given here.

Legend:
[1] = biological target: Na^+/K^+-ATPase (α1β1 isozyme) (Anas platyrhynchos, UniProt Q6TG02+Q7ZYV1); assay: Isothermal titration calorimetry of binding to Na+/K+-ATPase; design: species or system duck (salt glands); settings: ITC, 25°C
Method: The purified preparation of Na^+/K^+-ATPase (α1β1 isozyme) was obtained from duck salt glands as described elsewhere ([Petrushanko et al., 2016]).
The thermodynamic parameters of amyloid peptides binding to Na^+/K^+-ATPase were measured using a MicroCal iTC200 instrument, as described elsewhere ([Mitkevich et al., 2012]; [Petrushanko et al., 2014]). Experiments were carried out at 25°C in 10 mM imidazole buffer (pH 7.5), containing 130 mM NaCl, 30 mM KCl, 3 mM MgCl2. Aliquots (2.6 μl) of ligands were injected into a 0.2-ml cell containing protein solution to achieve a complete binding isotherm. Protein concentration in the cell ranged from 10 to 20 μM, and ligand concentration in the syringe ranged from 100 to 200 μM. The resulting titration curves were fitted using the MicroCal Origin software, assuming one set of binding sites. Affinity constants (Ka), enthalpy variations (ΔH) and stoichiometry of binding (N) were determined and the Gibbs energy (ΔG) and entropy variations (ΔS) were calculated from the equation: ΔG = −RTlnKa = ΔH-TΔS.

[2] = cited from earlier work
Description: Recently, it has been shown that Aβ undergoes phosphorylation at Ser8 both in vitro and in vivo ([Kumar et al., 2011], [2013]). […] Recently, pS8-Aβ was obtained in vitro by Aβ phosphorylation with protein kinase A and was subsequently identified in vivo ([Kumar et al., 2011], [2013]). Based on the oligomeric state of pS8-Aβ derived from brain tissue of A ...

[3] = biological target: Na+/K+-ATPase (α1β1 isozyme) from duck salt glands (duck); assay: ITC; peptide (100-200 μM, syringe) injected into Na+/K+-ATPase (10-20 μM, cell); 25°C; 10 mM imidazole pH 7.5, 130 mM NaCl, 30 mM KCl, 3 mM MgCl2; fit with one set of binding sites
[4] = 10 mM imidazole buffer (pH 7.5), 130 mM NaCl, 30 mM KCl, 3 mM MgCl2
[5] = pH 7.5, calculated from ΔG = −RTlnKa = ΔH-TΔS

Substance: LVFFAEDVGSNKGAIIGLMVGGVVIA [Aβ17–42]
- detectability of binding to Na+,K+-ATPase [1, 4]: Binding was detectable
- ΔH [1, 4]: -2.27 kcal/mol
- Ka ([1]; 10 mM imidazole buffer (pH 7.5), 130 mM NaCl, 30 mM KCl, 3 mM MgCl2, one set of binding sites): 260000 M⁻¹
- TΔS [1, 5]: 5.13 kcal/mol
- ΔG [1, 5]: -7.4 kcal/mol

Substance: pS8-Aβ40: Aβ40 phosphorylated at Ser8 (literature)
- aggregation in vitro ([2]; absence of divalent cations, ref Kumar et al. (2011)): accelerated aggregation

Substance: pS8-Aβ: phosphorylated Ser8-containing β-amyloid peptide (length not stated, literature)
- aggregation in absence of zinc ions ([2]; in vitro, absence of zinc ions, ref Rezaei-Ghaleh et al., 2016, Jamasbi et al., 2017): fast-aggregating peptide species

- Ka [3]: 260000 M⁻¹
- pKd [3]: 5.42
- dH [3]: -2.27 kcal/mol
Substance: β-amyloid peptide 17–42 (Aβ17-42), C-terminal hydrophobic fragment
